The supplement of paper PMC10307832

Columns and labels:
Assay in all cases: relative viability (nuclei count vs DMSO), 5 days (fraction); higher = more cells survive
[1] = compound: C#Cc1cccc(Nc2ncnc3cc(OCCOC)c(OCCOC)cc23)c1 [Erlotinib] + CC(=O)c1c(C)c2cnc(Nc3ccc(N4CCNCC4)cn3)nc2n(C2CCCC2)c1=O [Palbociclib] (partner 0.5 µM)
Method in brief: (§1)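 Dosing by pin tool came one day after lung cancer cell lines were seeded in 1536-well plates, using either one drug or a fixed anchor-drug dose plus five library-drug doses (not always all listed) in √10 steps. After 5 days, nuclei were counted on 4× images. Relative viability is treated-well nuclei count divided by vehicle-well nuclei count, and values are medians of duplicate plates.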

[2] = compound: C#Cc1cccc(Nc2ncnc3cc(OCCOC)c(OCCOC)cc23)c1 [Erlotinib] + CC1(C)CCC(c2ccc(Cl)cc2)=C(CN2CCN(c3ccc(C(=O)NS(=O)(=O)c4ccc(N[C@H](CCN5CCOCC5)CSc5ccccc5)c(S(=O)(=O)C(F)(F)F)c4)cc3)CC2)C1 [Navitoclax] (partner 0.5 µM)
Method in brief: as §1

[3] = compound: O=C(Nc1c[nH]nc1-c1nc2ccc(CN3CCOCC3)cc2[nH]1)NC1CC1 [AT9283] + CC(=O)c1c(C)c2cnc(Nc3ccc(N4CCNCC4)cn3)nc2n(C2CCCC2)c1=O [Palbociclib] (partner 0.5 µM)
Method in brief: as §1

[4] = compound: O=C(Nc1c[nH]nc1-c1nc2ccc(CN3CCOCC3)cc2[nH]1)NC1CC1 [AT9283] + C[C@]1(O)C[C@@H](c2nc(-c3ccc4ccc(-c5ccccc5)nc4c3)c3c(N)nccn32)C1 [Linsitinib] (partner 1 µM)
Method in brief: as §1

[5] = compound: O=C(Nc1c[nH]nc1-c1nc2ccc(CN3CCOCC3)cc2[nH]1)NC1CC1 [AT9283] + N=C(N)NC(=N)NCCc1ccccc1 [Phenformin] (partner 250 µM)
Method in brief: as §1

Cell Line | relative viability ([1]; first compound 0.02 µM) | relative viability ([1]; first compound 0.2 µM) | relative viability ([1]; first compound 0.6325 µM) | relative viability ([1]; first compound 2 µM) | relative viability ([2]; first compound 0.02 µM) | relative viability ([2]; first compound 0.2 µM) | relative viability ([2]; first compound 0.6325 µM) | relative viability ([2]; first compound 2 µM) | relative viability ([3]; first compound 0.003 µM) | relative viability ([3]; first compound 0.03 µM) | relative viability ([3]; first compound 0.09487 µM) | relative viability ([3]; first compound 0.3 µM) | relative viability ([4]; first compound 0.003 µM) | relative viability ([4]; first compound 0.03 µM) | relative viability ([4]; first compound 0.09487 µM) | relative viability ([4]; first compound 0.3 µM) | relative viability ([5]; first compound 0.003 µM) | relative viability ([5]; first compound 0.03 µM) | relative viability ([5]; first compound 0.09487 µM) | relative viability ([5]; first compound 0.3 µM)
NCI-H1666 | 0.624 | 0.613 | 0.631 | 0.74 | 0.999 | 0.817 | 0.407 | 0.347 | 0.619 | 0.691 | 0.524 | 0.534 | 0.964 | 0.779 | 0.265 | 0.355 | 0.587 | 0.516 | 0.404 | 0.35
NCI-H1734 | 0.346 | 0.342 | 0.372 | 0.41 | 0.852 | 0.795 | 0.907 | 0.75 | 0.336 | 0.281 | 0.227 | 0.233 | 0.85 | 0.583 | 0.288 | 0.294 | 0.334 | 0.278 | 0.243 | 0.203
NCI-H1755 | 0.454 | 0.449 | 0.446 | 0.458 | 1.02 | 1 | 0.976 |  | 0.434 | 0.463 | 0.469 | 0.499 | 0.996 | 0.847 | 0.516 | 0.404 | 0.579 | 0.626 | 0.394 | 0.422
NCI-H1792 | 0.612 | 0.541 | 0.639 |  | 0.451 | 0.545 | 0.84 | 0.579 | 0.607 | 0.661 | 0.623 | 0.399 | 0.492 | 0.629 | 0.192 | 0.117 |  | 0.255 | 0.333 | 0.148
NCI-H1793 | 0.252 | 0.241 | 0.247 | 0.241 | 0.447 | 0.325 | 0.297 | 0.387 | 0.275 | 0.329 | 0.298 | 0.255 | 0.941 | 0.859 | 0.339 | 0.209 | 0.301 | 0.352 | 0.138 | 0.219
NCI-H1915 | 0.522 | 0.526 | 0.599 | 0.502 | 0.865 | 0.807 | 0.841 | 0.745 | 0.545 | 0.51 | 0.254 | 0.153 | 1.06 | 1.01 | 0.529 | 0.239 | 0.362 | 0.342 | 0.174 | 0.168
NCI-H1944 | 0.331 | 0.242 | 0.264 | 0.231 | 0.989 | 0.912 | 0.941 | 0.796 | 0.336 | 0.241 | 0.188 | 0.172 | 1.17 | 0.973 | 0.528 | 0.331 | 0.201 | 0.171 | 0.122 | 0.136
NCI-H1975 | 0.539 | 0.611 | 0.639 | 0.472 | 1.11 | 1.07 | 1.07 | 0.977 | 0.526 | 0.676 | 0.531 | 0.324 | 0.932 | 0.769 | 0.341 | 0.223 | 0.418 | 0.403 | 0.356 | 0.183
NCI-H1993 | 0.585 | 0.561 | 0.503 | 0.514 | 0.848 | 0.725 | 0.786 | 0.722 | 0.597 | 0.665 | 0.534 | 0.34 | 0.788 | 0.686 | 0.61 | 0.588 | 0.474 | 0.496 | 0.431 | 0.408
NCI-H2009 | 0.173 | 0.205 | 0.235 | 0.203 | 1.25 | 1.24 | 1.24 | 1.19 | 0.235 | 0.174 | 0.0777 | 0.032 | 1.21 | 0.704 | 0.315 | 0.323 | 0.525 | 0.384 | 0.309 | 0.145
NCI-H2023 | 0.393 | 0.351 | 0.297 | 0.225 | 1.01 | 1.02 | 0.916 | 0.837 | 0.417 | 0.327 | 0.258 | 0.139 | 0.765 | 0.308 | 0.135 | 0.132 | 0.448 | 0.389 | 0.193 | 0.131
NCI-H2085 | 0.465 | 0.44 | 0.379 | 0.381 | 1.23 | 0.988 | 0.893 | 0.808 | 0.498 | 0.473 | 0.413 | 0.319 | 0.847 | 0.687 | 0.245 | 0.214 | 0.702 | 0.664 | 0.597 | 0.264
NCI-H2087 | 0.238 | 0.246 | 0.212 | 0.226 | 1.14 | 0.913 | 0.899 | 0.904 | 0.218 | 0.234 | 0.117 | 0.121 | 1.08 | 0.542 | 0.339 | 0.245 | 0.458 | 0.251 | 0.111 | 0.118
NCI-H2126 | 0.381 | 0.364 | 0.349 | 0.367 | 0.879 | 0.707 | 0.537 | 0.402 | 0.341 | 0.35 | 0.365 | 0.272 | 0.685 | 0.758 | 0.714 | 0.276 | 0.511 | 0.575 | 0.365 | 0.264
NCI-H2228 | 0.805 | 0.739 |  | 0.572 | 1.28 | 0.909 | 0.679 | 0.676 | 0.588 | 0.492 | 0.351 | 0.149 | 0.823 | 0.632 | 0.17 | 0.175 | 0.363 | 0.256 | 0.129 | 0.107
NCI-H2347 | 0.432 | 0.415 | 0.429 | 0.468 | 1.07 | 0.833 | 0.837 | 0.796 | 0.444 | 0.515 | 0.475 | 0.346 | 0.952 | 0.975 | 0.555 | 0.389 | 0.413 | 0.464 | 0.347 | 0.363
